Key:
[1] = Drug uptake in human T24 cell cytoskeleton at 2 uM after 1 hr by Dil-C28 dye staining-based inverted microscopic analysis; format: ADME; settings: t-24, 1 h
[2] = Drug uptake in human T24 cell cytoplasm at 2 uM after 1 hr by Dil-C28 dye staining-based inverted microscopic analysis; format: ADME; settings: t-24, 1 h

Drug uptake [1] | Drug uptake [2] | Compound
Active | – | CCCCCCN(CCCCCC)c1ccc(/C=C(\C#N)C(=O)OCCCCCNC(=O)c2cc3ccc(OC)cc3oc2=O)s1
– | Active | COc1ccc2cc(C(=O)NCCOCCOCCOC(=O)/C(C#N)=C/c3ccc(N4CCCCC4)s3)c(=O)oc2c1

— ChEMBL document CHEMBL2046369, “Self-calibrating viscosity probes: design and subcellular localization” (Bioorg Med Chem, 2012)
